The term IC50 denotes the concentration that inhibits the measured activity by half.

Sequence of human DGAT2 (Q96PD7 whole entry): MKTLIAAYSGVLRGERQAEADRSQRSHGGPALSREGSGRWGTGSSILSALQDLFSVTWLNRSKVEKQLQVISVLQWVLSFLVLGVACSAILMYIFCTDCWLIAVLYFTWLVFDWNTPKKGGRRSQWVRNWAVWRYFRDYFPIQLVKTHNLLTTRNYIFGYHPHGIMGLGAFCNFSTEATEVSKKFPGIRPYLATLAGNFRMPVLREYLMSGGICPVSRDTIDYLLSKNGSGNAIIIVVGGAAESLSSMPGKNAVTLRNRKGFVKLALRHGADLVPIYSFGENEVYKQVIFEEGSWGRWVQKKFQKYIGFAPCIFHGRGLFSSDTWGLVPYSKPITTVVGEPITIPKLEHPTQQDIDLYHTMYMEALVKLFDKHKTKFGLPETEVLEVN

The first assay has as its target human DGAT2 (Homo sapiens (Human), UniProt Q96PD7). Briefly: DGAT2 Enzymatic Activity Assay. The conditions noted are these: Human DGAT2 IC50, hDGAT2 membrane prep from Sf-9 cells; 13C18-triolein product by LC/MS/MS.
Protocol: Sf-9 insect cells were maintained in Grace's insect cell culture medium with 10% heated-inactivated fetal bovine serum, 1% Pluronic F-68 and 0.14 μg/ml Kanamycine sulfate at 27° C. in a shaker incubator. After infection with untagged baculovirus expressing human DGAT2 (hDGAT2) at multiplicity of infection (MOI) 3 for 48 hours, cells were harvested. Cell pellets were suspended in buffer containing 10 mM Tris-HCl pH 7.5, 1 mM EDTA, 250 mM sucrose and Complete Protease Inhibitor Cocktail (Sigma Aldrich), and sonicated on ice. Cell debris were removed by centrifugation at 2000×g for 15 minutes. Membrane fractions were isolated by ultracentrifugation (100,000×g), resuspended in the same buffer, and frozen (−80° C.) for later use. The protein concentration was determined with the Pierce™ BCA Protein Assay Kit (Thermo Fisher Scientific).
LC/MS/MS analyses were performed using Thermal Fisher's LX4-TSQ Vantage system. This system consists of an Agilent binary high-performance liquid chromatography (HPLC) pump and a TSQ Vantage triple quadrupole MS/MS instrument. For each sample, 2 μL samples from the top organic layer of in-plate liquid-liquid extraction were injected onto a Thermo Betabasic C4 column (2.1 mm×20 mm, 5 μm particle size). The samples were then eluted using the following conditions; mobile phase: Isopropanol: acetonitrile/10 mM ammonium formate=50/35/15 (v/v/v), flow rate: 0.8 mL/min, temperature: 25° C. Data was acquired in positive mode using a heated electrospray ionization (HESI) interface. […] The peak area was integrated by Xcalibur Quan software. The ratio between the ^13C18 triolein generated in the reaction and spiked in internal standard ^13C21-triolein was used to generate percentage inhibition and IC50 values. […] DGAT2 activity was determined by measuring the amount of enzymatic product ^13C18-triolein (^13C-1,2,3-Tri(cis-9-octadecenoyl)glycerol) using the membrane prep mentioned above. The assay was carried out in ABgene 384-well assay plates in a final volume of 25 μL at rt.
`CC(C)n1c(C(=O)NC2(C)CCS(=O)(=O)CC2)nc2ccc(Oc3ncc(Cl)cc3OCC(F)F)nc21` [Example 52, 5-((5-chloro-3-(2,2-difluoroethoxy)pyridin-2-yl)oxy)-3-isopropyl-N-(4-methyl-1,1-dioxidotetrahydro-2H-thiopyran-4-yl)-3H-imidazo[4,5-b]pyridine-2-carboxamide]: the half-maximal inhibitory concentration (IC50) came to 3.6 nM.

`Cn1c(C(=O)NC2(C)CCS(=O)(=O)CC2)nc2ccc(OCc3ncc(Cl)cc3OCC(F)F)nc21` [Example 58, 5-((5-Chloro-3-(2,2-difluoroethoxy)pyridin-2-yl)methoxy)-3-methyl-N-(4-methyl-1,1-dioxidotetrahydro-2H-thiopyran-4-yl)-3H-imidazo[4,5-b]pyridine-2-carboxamide] displayed an IC50 of 2.3 nM. The same measure, in the same setting: the result for `CCC(COc1ccc2nc(C(=O)NC3(C)CCS(=O)(=O)CC3)n(C)c2n1)OCC(F)F` (stereo not drawn) [Example 60, 5-[2-(2,2-Difluoroethoxy)butoxy]-3-methyl-N-(4-methyl-1,1-dioxo-thian-4-yl)imidazo[4,5-b]pyridine-2-carboxamide] reads 3 nM; that for `Cn1c(C(=O)NC2(C)CCS(=O)(=O)CC2)nc2cnc(Oc3ncc(Cl)cc3OCC(F)F)cc21` [Example 66, 6-((5-Chloro-3-(2,2-difluoroethoxy)pyridin-2-yl)oxy)-1-methyl-N-(4-methyl-1,1-dioxidotetrahydro-2H-thiopyran-4-yl)-1H-imidazo[4,5-c]pyridine-2-carboxamide], 16 nM; that for `Cn1c(C(=O)NC2(C)CCS(=O)(=O)CC2)nc2cnc(Oc3ncc(Cl)cc3OCC(F)F)c(F)c21` [Example 76, 6-[[5-Chloro-3-(2,2-difluoroethoxy)-2-pyridyl]oxy]-7-fluoro-1-methyl-N-(4-methyl-1,1-dioxo-thian-4-yl)imidazo[4,5-c]pyridine-2-carboxamide], 3.3 nM. On the same count and under the same terms, the result for `Cc1c(Oc2ncc(Cl)cc2OCC(F)F)ncc2nc(C(=O)NC3(C)CCS(=O)(=O)CC3)n(C)c12` [Example 78, 6-[[5-Chloro-3-(2,2-difluoroethoxy)-2-pyridyl]oxy]-1,7-dimethyl-N-(4-methyl-1,1-dioxo-thian-4-yl)imidazo[4,5-c]pyridine-2-carboxamide] reads 3.9 nM; that for `Cn1c(C(=O)NC2(C)CCS(=O)(=O)CC2)nc2cnc(OCc3ncc(Cl)cc3OCC(F)F)cc21` [Example 80, 6-((5-Chloro-3-(2,2-difluoroethoxy)pyridin-2-yl)methoxy)-1-methyl-N-(4-methyl-1,1-dioxidotetrahydro-2H-thiopyran-4-yl)-1H-imidazo[4,5-c]pyridine-2-carboxamide], 30 nM; that for `Cn1c(C(=O)NC2(C)CCS(=O)(=O)CC2)nc2ncc(Oc3ncc(Cl)cc3OCC(F)F)cc21` [Example 82, 6-[[5-Chloro-3-(2,2-difluoroethoxy)-2-pyridyl]oxy]-1-methyl-N-(4-methyl-1,1-dioxo-thian-4-yl)imidazo[4,5-b]pyridine-2-carboxamide], 1.2 nM.

The same assay, now with this note: read-out: Human DGAT2 IC50; hDGAT2 membrane prep from Sf-9 cells; 13C18-triolein product by LC/MS/MS.
Turning to `CC1(NC(=O)c2nc3nc(Oc4ncc(Cl)cc4OCC(F)F)ccc3n2CC(F)F)CCS(=O)(=O)CC1` [Example 53, 5-((5-chloro-3-(2,2-difluoroethoxy)pyridin-2-yl)oxy)-1-(2,2-difluoroethyl)-N-(4-methyl-1,1-dioxidotetrahydro-2H-thiopyran-4-yl)-1H-imidazo[4,5-b]pyridine-2-carboxamide], the half-inhibitory concentration (IC50) came out at 134 nM. Same read-out and setting: the result for `CC1(NC(=O)c2nc3ccc(Oc4ncc(Cl)cc4OCC(F)F)nc3n2CC(F)F)CCS(=O)(=O)CC1` [Example 54, 5-((5-chloro-3-(2,2-difluoroethoxy)pyridin-2-yl)oxy)-3-(2,2-difluoroethyl)-N-(4-methyl-1,1-dioxidotetrahydro-2H-thiopyran-4-yl)-3H-imidazo[4,5-b]pyridine-2-carboxamide] reads 0.6 nM; that for `CCn1c(C(=O)NC2(C)CCS(=O)(=O)CC2)nc2ccc(Oc3ncc(Cl)cc3OCC(F)F)nc21` [Example 55, 5-((5-chloro-3-(2,2-difluoroethoxy)pyridin-2-yl)oxy)-3-ethyl-N-(4-methyl-1,1-dioxidotetrahydro-2H-thiopyran-4-yl)-3H-imidazo[4,5-b]pyridine-2-carboxamide], 8.9 nM. The same measure, in the same setting: for `CC1(NC(=O)c2nc3nc(Oc4ncc(Cl)cc4OCC(F)F)ccc3n2CC2(F)COC2)CCS(=O)(=O)CC1` [Example 56, 5-((5-chloro-3-(2,2-difluoroethoxy)pyridin-2-yl)oxy)-1-((3-fluorooxetan-3-yl)methyl)-N-(4-methyl-1,1-dioxidotetrahydro-2H-thiopyran-4-yl)-1H-imidazo[4,5-b]pyridine-2-carboxamide] the value was 51 nM; for `CC1(NC(=O)c2nc3ccc(Oc4ncc(Cl)cc4OCC(F)F)nc3n2CC2(F)COC2)CCS(=O)(=O)CC1` [Example 57, 5-((5-chloro-3-(2,2-difluoroethoxy)pyridin-2-yl)oxy)-3-((3-fluorooxetan-3-yl)methyl)-N-(4-methyl-1,1-dioxidotetrahydro-2H-thiopyran-4-yl)-3H-imidazo[4,5-b]pyridine-2-carboxamide], 183 nM; for `Cn1c(C(=O)NC2(C)CCS(=O)(=O)CC2)nc2ccc(OCc3ncc(F)cc3OCC(F)(F)F)nc21` [Example 59, 5-[[5-Fluoro-3-(2,2,2-trifluoroethoxy)-2-pyridyl]methoxy]-3-methyl-N-(4-methyl-1,1-dioxo-thian-4-yl)imidazo[4,5-b]pyridine-2-carboxamide], 2.8 nM.

In the case of `CCC(COc1ccc2nc(C(=O)NC3(C)CCS(=O)(=O)CC3)n(C)c2n1)OCC(C)(F)F` (stereo not drawn) [Example 61, 5-[2-(2,2-difluoropropoxy)butoxy]-3-methyl-N-(4-methyl-1,1-dioxo-thian-4-yl)imidazo[4,5-b]pyridine-2-carboxamide], the concentration for half-maximal inhibition (IC50) amounted to 44 nM.

With `Cn1c(C(=O)NC2(C)CCS(=O)(=O)CC2)nc2cnc(Oc3ncc(Cl)cc3OCC(C)(F)F)cc21` [Example 67, 6-[[5-chloro-3-(2,2-difluoropropoxy)-2-pyridyl]oxy]-1-methyl-N-(4-methyl-1,1-dioxo-thian-4-yl)imidazo[4,5-c]pyridine-2-carboxamide], the IC50 was 24 nM.

For the molecule `Cn1c(C(=O)NC2(C)CCS(=O)(=O)CC2)nc2cnc(Oc3ncc(F)cc3OCC(F)(F)F)cc21` [Example 68, 6-[[5-fluoro-3-(2,2,2-trifluoroethoxy)-2-pyridyl]oxy]-1-methyl-N-(4-methyl-1,1-dioxo-thian-4-yl)imidazo[4,5-c]pyridine-2-carboxamide], the half-inhibitory concentration (IC50) was determined as 27 nM.

For the molecule `Cn1c(C(=O)NC2(C)CCS(=O)(=O)CC2)nc2cnc(Oc3nccnc3OCC(F)(F)F)cc21` [Example 69, 1-methyl-N-(4-methyl-1,1-dioxo-thian-4-yl)-6-[3-(2,2,2-trifluoroethoxy)pyrazin-2-yl]oxy-imidazo[4,5-c]pyridine-2-carboxamide], the half-inhibitory concentration (IC50) was 105 nM.

On to `Cn1c(C(=O)NC2(C)CS(=O)(=O)C2)nc2cnc(Oc3ncc(Cl)cc3OCC(F)F)cc21` [Example 70, 6-[[5-chloro-3-(2,2-difluoroethoxy)-2-pyridyl]oxy]-1-methyl-N-(3-methyl-1,1-dioxo-thietan-3-yl)imidazo[4,5-c]pyridine-2-carboxamide], for which the concentration for half-maximal inhibition (IC50) is 11 nM. Same read-out and setting: the result for `Cn1c(C(=O)NC2(C)CS(=O)(=O)C2)nc2cnc(Oc3ncc(F)cc3OCC(F)F)cc21` [Example 71, 6-[[3-(2,2-difluoroethoxy)-5-fluoro-2-pyridyl]oxy]-1-methyl-N-(3-methyl-1,1-dioxo-thietan-3-yl)imidazo[4,5-c]pyridine-2-carboxamide] reads 269 nM; that for `Cn1c(C(=O)NC2(C)CCS(=O)(=O)CC2)nc2cnc(Oc3ncc(F)cc3OCC(F)F)cc21` [Example 72, 6-[[3-(2,2-difluoroethoxy)-5-fluoro-2-pyridyl]oxy]-1-methyl-N-(4-methyl-1,1-dioxo-thian-4-yl)imidazo[4,5-c]pyridine-2-carboxamide], 6.9 nM. On to `Cc1cnc(Oc2cc3c(cn2)nc(C(=O)NC2(C)CCS(=O)(=O)CC2)n3C)c(OCC(F)F)c1` [Example 73, 6-[[3-(2,2-difluoroethoxy)-5-methyl-2-pyridyl]oxy]-1-methyl-N-(4-methyl-1,1-dioxo-thian-4-yl)imidazo[4,5-c]pyridine-2-carboxamide], for which the IC50 is 9.1 nM.

As to `Cc1nc(Oc2ncc(Cl)cc2OCC(F)F)cc2c1nc(C(=O)NC1(C)CCS(=O)(=O)CC1)n2C` [Example 74, 6-[5-chloro-3-(2,2-difluoroethoxy)pyridin-1-ium-2-yl]oxy-1,4-dimethyl-N-(4-methyl-1,1-dioxo-thian-4-yl)imidazo[4,5-c]pyridine-2-carboxamide], the IC50 is 14 nM.

With `Cn1c(C(=O)N[C@H]2CCCC(F)(F)[C@@H]2O)nc2cnc(Oc3ncc(Cl)cc3OCC(F)F)cc21` [Example 75, 6-[[5-chloro-3-(2,2-difluoroethoxy)-2-pyridyl]oxy]-N-[(1S,2R)-3,3-difluoro-2-hydroxy-cyclohexyl]-1-methyl-imidazo[4,5-c]pyridine-2-carboxamide], the IC50 was determined as 10 nM. As to `Cn1c(C(=O)NC2(C)CCS(=O)(=O)CC2)nc2cnc(Oc3ncc(F)cc3OCC(F)(F)F)c(F)c21` [Example 77, 7-fluoro-6-[[5-fluoro-3-(2,2,2-trifluoroethoxy)-2-pyridyl]oxy]-1-methyl-N-(4-methyl-1,1-dioxo-thian-4-yl)imidazo[4,5-c]pyridine-2-carboxamide], the IC50 is 48 nM. The same measure, in the same setting: the result for `Cc1c(Oc2ncc(F)cc2OCC(F)(F)F)ncc2nc(C(=O)NC3(C)CCS(=O)(=O)CC3)n(C)c12` [Example 79, 6-[[5-fluoro-3-(2,2,2-trifluoroethoxy)-2-pyridyl]oxy]-1,7-dimethyl-N-(4-methyl-1,1-dioxo-thian-4-yl)imidazo[4,5-c]pyridine-2-carboxamide] reads 58 nM.

With `Cn1c(C(=O)NC2(C)CCS(=O)(=O)CC2)nc2cnc(OCc3ncc(F)cc3OCC(F)(F)F)cc21` [Example 81, 6-[[5-Fluoro-3-(2,2,2-trifluoroethoxy)-2-pyridyl]methoxy]-1-methyl-N-(4-methyl-1,1-dioxo-thian-4-yl)imidazo[4,5-c]pyridine-2-carboxamide], the IC50 is 262 nM.

Source of the values: patent US20240254114A1, “PREPARATION OF FUSED AZOLE DERIVATIVES AS NOVEL DIACYLGLYCERIDE 0-ACYLTRANSFERASE 2 INHIBITORS” (Merck Sharp & Dohme LLC, priority 2022, published 2024).
